{"source": "patent US12077503B2", "about": "“Substituted cyclic amides and their use as herbicides” (FMC CORPORATION, priority 2015, dated 2024)", "type_in_all_cases": "in vivo", "key": {"[1]": {"test_system": "ducksalad (Heteranthera limosa)", "test": "Test B flooded paddy test", "conditions": "Flood, 250 g ai/ha; 0 to 100 scale where 0 is no effect and 100 is complete control; 13 to 15 d", "method_in_brief": "(§1)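 Compound goes directly into floodwater once pots are flooded 3 cm above soil, targeting plants at two leaves; the water depth is then held for the test duration. Plants sit 13–15 d in a greenhouse and are rated visually, 100 denoting complete control.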"}, "[2]": {"test_system": "sedge, umbrella (small-flower umbrella sedge, Cyperus difformis)", "test": "Test B flooded paddy test", "conditions": "Flood, 250 g ai/ha; 0 to 100 scale where 0 is no effect and 100 is complete control; 13 to 15 d", "method_in_brief": "as §1"}, "rice (Oryra sativa)": {"test_system": "rice (Oryra sativa)", "test": "Test B flooded paddy test", "conditions": "Flood, 250 g ai/ha; 0 to 100 scale where 0 is no effect and 100 is complete control; 13 to 15 d", "method_in_brief": "as §1"}, "[3]": {"test_system": "barnyardgrass (Echinochloa crus-galli)", "test": "Test B flooded paddy test", "conditions": "Flood, 250 g ai/ha; 0 to 100 scale where 0 is no effect and 100 is complete control; 13 to 15 d", "method_in_brief": "as §1"}, "[4]": {"test_system": "nightshade (eastern black nightshade, Solanum ptycanthum)", "test": "Test E preemergence", "conditions": "scale 0 to 100", "method_in_brief": "(§2)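 Compound in non-phytotoxic solvent with surfactant is applied preemergence to silt loam soil after sowing, or postemergence to plants 2 to 18 cm tall in peat-based medium. Plants grow in a greenhouse for 14 to 21 d. Each species is then compared with controls and scored visually, 0 (no effect) to 100 (complete control).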"}, "[5]": {"test_system": "crabgrass, Brazil (Brazilian crabgrass, Digitaria horizontalis)", "test": "Test E preemergence", "conditions": "scale 0 to 100", "method_in_brief": "as §2"}, "[6]": {"test_system": "lambsquarters (Chenopodium album)", "test": "Test E preemergence", "conditions": "scale 0 to 100", "method_in_brief": "as §2"}, "[7]": {"test_system": "arrowleaf Sida (Sida rhombifolia)", "test": "Test E preemergence", "conditions": "scale 0 to 100", "method_in_brief": "as §2"}, "[8]": {"test_system": "morningglory (Ipomoea coccinea)", "test": "Test E preemergence", "conditions": "scale 0 to 100", "method_in_brief": "as §2"}, "[9]": {"test_system": "velvetleaf (Abutilon theophrasti)", "test": "Test E preemergence", "conditions": "scale 0 to 100", "method_in_brief": "as §2"}, "[10]": {"test_system": "field bindweed (Convolvulus arvensis)", "test": "Test E preemergence", "conditions": "scale 0 to 100", "method_in_brief": "as §2"}, "[11]": {"test_system": "surinam grass (Brachiaria decumbens)", "test": "Test E preemergence", "conditions": "scale 0 to 100", "method_in_brief": "as §2"}, "[12]": {"test_system": "sandbur (southern sandbur, Cenchrus echinatus)", "test": "Test E preemergence", "conditions": "scale 0 to 100", "method_in_brief": "as §2"}, "[13]": {"test_system": "pigweed, palmer (palmer pigweed, Amaranthus palmeri)", "test": "Test E preemergence", "conditions": "scale 0 to 100", "method_in_brief": "as §2"}, "[14]": {"test_system": "foxtail, green (green foxtail, Setaria viridis)", "test": "Test E preemergence", "conditions": "scale 0 to 100", "method_in_brief": "as §2"}, "[15]": {"test_system": "goosegrass (Eleusine indica)", "test": "Test E preemergence", "conditions": "scale 0 to 100", "method_in_brief": "as §2"}, "[16]": {"test_system": "crabgrass, large (large crabgrass, Digitaria sangumnalis)", "test": "Test E preemergence", "conditions": "scale 0 to 100", "method_in_brief": "as §2"}}}
{"smiles": "CN1C[C@H](c2ccc(C(F)(F)F)cc2)[C@@H](C(=O)Nc2cccc(F)c2F)C1=O", "note": "[Compound 623, (3S,4S)—N-(2,3-difluorophenyl)-1-methyl-2-oxo-4-[4-(trifluoromethyl)phenyl]-3-pyrrolidinecarboxamide]", "values": [{"measurement": "Plant response rating, Ducksalad", "setting": "[1]", "result": 50}, {"measurement": "Plant response rating, Sedge, Umbrella", "setting": "[2]", "result": 0}, {"measurement": "Plant response rating, Rice", "setting": "rice (Oryra sativa)", "result": 0}, {"measurement": "Plant response rating, Barnyardgrass", "setting": "[3]", "result": 40}, {"measurement": "Plant response rating: Nightshade", "setting": "[4]; 62 g ai/ha", "result": 35}, {"measurement": "Plant response rating: Nightshade", "setting": "[4]; 125 g ai/ha", "result": 70}, {"measurement": "Plant response rating: Nightshade", "setting": "[4]; 250 g ai/ha", "result": 70}, {"measurement": "Plant response rating: Crabgrass, Brazil", "setting": "[5]; 31 g ai/ha", "result": 98}, {"measurement": "Plant response rating: Crabgrass, Brazil", "setting": "[5]; 62 g ai/ha", "result": 98}, {"measurement": "Plant response rating: Crabgrass, Brazil", "setting": "[5]; 125 g ai/ha", "result": 98}, {"measurement": "Plant response rating: Crabgrass, Brazil", "setting": "[5]; 250 g ai/ha", "result": 98}, {"measurement": "Plant response rating: Lambsquarters", "setting": "[6]; 31 g ai/ha", "result": 90}, {"measurement": "Plant response rating: Lambsquarters", "setting": "[6]; 62 g ai/ha", "result": 90}, {"measurement": "Plant response rating: Lambsquarters", "setting": "[6]; 125 g ai/ha", "result": 100}, {"measurement": "Plant response rating: Lambsquarters", "setting": "[6]; 250 g ai/ha", "result": 95}, {"measurement": "Plant response rating: Arrowleaf Sida", "setting": "[7]; 31 g ai/ha", "result": 20}, {"measurement": "Plant response rating: Arrowleaf Sida", "setting": "[7]; 62 g ai/ha", "result": 80}, {"measurement": "Plant response rating: Arrowleaf Sida", "setting": "[7]; 125 g ai/ha", "result": 85}, {"measurement": "Plant response rating: Arrowleaf Sida", "setting": "[7]; 250 g ai/ha", "result": 90}, {"measurement": "Plant response rating: Morningglory", "setting": "[8]; 31 g ai/ha", "result": 0}, {"measurement": "Plant response rating: Morningglory", "setting": "[8]; 62 g ai/ha", "result": 0}, {"measurement": "Plant response rating: Morningglory", "setting": "[8]; 125 g ai/ha", "result": 0}, {"measurement": "Plant response rating: Morningglory", "setting": "[8]; 250 g ai/ha", "result": 0}, {"measurement": "Plant response rating: Velvetleaf", "setting": "[9]; 31 g ai/ha", "result": 0}, {"measurement": "Plant response rating: Velvetleaf", "setting": "[9]; 62 g ai/ha", "result": 50}, {"measurement": "Plant response rating: Velvetleaf", "setting": "[9]; 125 g ai/ha", "result": 65}, {"measurement": "Plant response rating: Velvetleaf", "setting": "[9]; 250 g ai/ha", "result": 65}, {"measurement": "Plant response rating: Field Bindweed", "setting": "[10]; 31 g ai/ha", "result": 0}, {"measurement": "Plant response rating: Field Bindweed", "setting": "[10]; 62 g ai/ha", "result": 60}, {"measurement": "Plant response rating: Field Bindweed", "setting": "[10]; 125 g ai/ha", "result": 70}, {"measurement": "Plant response rating: Field Bindweed", "setting": "[10]; 250 g ai/ha", "result": 75}, {"measurement": "Plant response rating: Surinam Grass", "setting": "[11]; 31 g ai/ha", "result": 75}, {"measurement": "Plant response rating: Surinam Grass", "setting": "[11]; 62 g ai/ha", "result": 90}, {"measurement": "Plant response rating: Surinam Grass", "setting": "[11]; 125 g ai/ha", "result": 90}, {"measurement": "Plant response rating: Surinam Grass", "setting": "[11]; 250 g ai/ha", "result": 90}, {"measurement": "Plant response rating: Sandbur", "setting": "[12]; 31 g ai/ha", "result": 90}, {"measurement": "Plant response rating: Sandbur", "setting": "[12]; 62 g ai/ha", "result": 90}, {"measurement": "Plant response rating: Sandbur", "setting": "[12]; 125 g ai/ha", "result": 90}, {"measurement": "Plant response rating: Sandbur", "setting": "[12]; 250 g ai/ha", "result": 90}, {"measurement": "Plant response rating: Pigweed, Palmer", "setting": "[13]; 31 g ai/ha", "result": 75}, {"measurement": "Plant response rating: Pigweed, Palmer", "setting": "[13]; 62 g ai/ha", "result": 90}, {"measurement": "Plant response rating: Pigweed, Palmer", "setting": "[13]; 125 g ai/ha", "result": 95}, {"measurement": "Plant response rating: Pigweed, Palmer", "setting": "[13]; 250 g ai/ha", "result": 95}, {"measurement": "Plant response rating: Foxtail, Green", "setting": "[14]; 31 g ai/ha", "result": 95}, {"measurement": "Plant response rating: Foxtail, Green", "setting": "[14]; 62 g ai/ha", "result": 95}, {"measurement": "Plant response rating: Foxtail, Green", "setting": "[14]; 125 g ai/ha", "result": 98}, {"measurement": "Plant response rating: Foxtail, Green", "setting": "[14]; 250 g ai/ha", "result": 98}, {"measurement": "Plant response rating: Goosegrass", "setting": "[15]; 31 g ai/ha", "result": 95}, {"measurement": "Plant response rating: Goosegrass", "setting": "[15]; 62 g ai/ha", "result": 98}, {"measurement": "Plant response rating: Goosegrass", "setting": "[15]; 125 g ai/ha", "result": 98}, {"measurement": "Plant response rating: Goosegrass", "setting": "[15]; 250 g ai/ha", "result": 98}, {"measurement": "Plant response rating: Crabgrass, Large", "setting": "[16]; 31 g ai/ha", "result": 98}, {"measurement": "Plant response rating: Crabgrass, Large", "setting": "[16]; 62 g ai/ha", "result": 98}, {"measurement": "Plant response rating: Crabgrass, Large", "setting": "[16]; 125 g ai/ha", "result": 98}, {"measurement": "Plant response rating: Crabgrass, Large", "setting": "[16]; 250 g ai/ha", "result": 98}]}
